Measurements reported in article PMC11601558, “SLC6A19 inhibition facilitates urinary neutral amino acid excretion and lowers plasma phenylalanine” (JCI Insight, 2024).
Several values for one entry are separate records, joined by “and”; a condition that tells them apart may be missing. Identical values can stand only once. Like-named read-outs stand apart in the source and are kept apart here.

Target: T1, human SLC6A19 (Homo sapiens, UniProt Q695T7)
T1 construct: expressed in transfected cells
T1 sequence (Q695T7 1-634): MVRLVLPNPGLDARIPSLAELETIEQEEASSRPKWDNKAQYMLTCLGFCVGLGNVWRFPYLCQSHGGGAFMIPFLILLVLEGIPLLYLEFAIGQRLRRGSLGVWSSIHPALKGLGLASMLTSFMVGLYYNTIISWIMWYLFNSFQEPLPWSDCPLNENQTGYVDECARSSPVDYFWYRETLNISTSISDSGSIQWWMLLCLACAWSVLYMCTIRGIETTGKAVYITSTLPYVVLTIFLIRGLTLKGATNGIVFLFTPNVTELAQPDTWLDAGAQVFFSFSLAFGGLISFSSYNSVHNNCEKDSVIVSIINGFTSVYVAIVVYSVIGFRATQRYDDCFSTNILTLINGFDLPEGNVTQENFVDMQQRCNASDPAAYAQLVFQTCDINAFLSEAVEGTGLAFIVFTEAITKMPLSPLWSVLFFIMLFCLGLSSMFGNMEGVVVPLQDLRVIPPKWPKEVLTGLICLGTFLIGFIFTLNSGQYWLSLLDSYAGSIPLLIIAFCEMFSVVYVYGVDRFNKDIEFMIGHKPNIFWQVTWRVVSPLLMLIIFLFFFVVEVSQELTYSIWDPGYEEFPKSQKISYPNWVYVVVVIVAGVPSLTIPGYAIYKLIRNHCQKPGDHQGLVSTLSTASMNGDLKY
T1 sequence (Q9HBJ8 15-222 partner): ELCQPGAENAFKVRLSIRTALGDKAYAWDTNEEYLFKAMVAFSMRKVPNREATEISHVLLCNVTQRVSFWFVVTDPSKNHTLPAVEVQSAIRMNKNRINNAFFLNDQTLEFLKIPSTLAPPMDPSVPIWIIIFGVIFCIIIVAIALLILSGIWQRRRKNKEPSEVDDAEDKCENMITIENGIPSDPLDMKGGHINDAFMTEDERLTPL
Assay: Isoleucine transport assay, Flp-In T-REx 293 cells coexpressing human SLC6A19 and TMEM27
Type: cell-based
Details: for isoleucine transport, Human (Fig 1f curve point) / isoleucine transport, Human (Fig 1c curve point): technical replicates
Experimental: Flp-In T-REx 293 cells (Thermo Fisher Scientific) were engineered to coexpress C-terminally V5-tagged human or mouse SLC6A19 under the control of a tetracycline-inducible promoter and human or mouse myc-DDK-tagged TMEM27 under the control of a constitutively active promoter. Cells were maintained in DMEM/F12 medium supplemented with 10% FBS, 100 units/mL penicillin, 100 μg/mL streptomycin, 200 μg/mL hygromycin, 10 μg/mL blasticidin, and 300 μg/mL geneticin (all from Thermo Fisher Scientific) at 37°C and 5% CO2.
Flp-In T-REx 293 cells stably coexpressing human or mouse SLC6A19 and TMEM27 were plated in 384-well plates in the presence of 1 μg/mL tetracyclin (Sigma-Aldrich) to induce the expression of SLC6A19. After 24 hours, cells were washed with live cell imaging solution (LCIS, Thermo Fisher Scientific) before JN-170 or JNT-517 were added to cells in 10-point concentration response curves in 0.5% DMSO in Krebs buffer (140 mM NaCl, 4.7 mM KCl, 2.5 mM CaCl2, 1.2 mM MgCl2, 11 mM HEPES, 10 mM glucose, pH 7.4). Cells were incubated with compounds for 1 hour at room temperature before 1 mM ^13C6,^15N1-labeled L-isoleucine (Cambridge Isotope Laboratories) was added as a transport substrate. After 20 minutes incubation at room temperature, cells were washed and lysed in H2O with 15 μM internal standard D-Leucine-D10 (CDN Isotopes) for 1–2 hours. A standard curve of ^13C6,^15N1-L-isoleucine was added to each plate following cell lysis. Plates were centrifuged at 3,700g to remove cell debris, and supernatant was diluted in 2 steps to a final 1:10 dilution in acetonitrile/0.1% formic acid. Sample desalting was performed on a high throughput RapidFire-365 (Agilent) using a hydrophilic interaction liquid chromatography (HILIC) column. A quantitative time-of-flight (Q-ToF) mass spectrometer (Agilent) was used to detect analytes. Agilent MassHunter quantitative analysis for time of flight was used as the integration software for measuring area under the peak for both ^13C6,^15N1-L-isoleucine and D-Leucine-D10 internal standard.
IC50 values for transport inhibition in cells overexpressing SLC6A19 and TMEM27 were calculated using a 4-parameter logistic regression in Collaborative Drug Discovery (CDD). Reported IC50 values are geometric means of 4–6 independent experiments. For postmortem intestinal transport assays, single outliers of quadruplicate replicates were excluded from the calculation if a signal value’s distance to the mean exceeded 35% of the signal average. The IC50 values of individual experiments were calculated with a 3- or 4-parameter logistic regression using GraphPad Prism 9. The reported IC50 value represents the geometric mean of n = 5 experiments from 3 individual donors. Statistical comparison of urinary Phe excretion in Pah^enu2 mice treated with vehicle or JN-170 was conducted using 1-way analysis of variance (ANOVA) with Tukey’s post hoc comparison. Statistical analysis of baseline-adjusted plasma Phe in mice treated with vehicle or JN-170 was determined by 2-way ANOVA with Dunnett’s post hoc comparison. All statistical analyses were performed using GraphPad Prism 9. For clinical studies, group sizes were not determined based on statistical power calculations. Statistical significance of pharmacodynamic results was not assessed. Values are reported as mean (urinary Phe excretion, T1/2, Cl/F), geometric mean (Cmax/D, AUC0-inf/D), or median (Tmax).

Compound: N#Cc1ccc(-c2noc([C@]3(C(F)(F)F)CCN(C(=O)NCCC4(N)CC4)C3)n2)cc1 [JN-170]
- fold less potent against human SLC6A19 than mouse SLC6A19: > 10 fold
- isoleucine transport, Human (Fig 1f curve point) (0.000722 uM): 84.3 and 86.8
- isoleucine transport, Human (Fig 1f curve point) (0.00219 uM): 72.6 and 89.2
- isoleucine transport, Human (Fig 1f curve point) (0.00438 uM): 81.4 and 98.3
- isoleucine transport, Human (Fig 1f curve point) (0.015313 uM): 84.4 and 88.8
- isoleucine transport, Human (Fig 1f curve point) (0.048125 uM): 85.9 and 72.3
- isoleucine transport, Human (Fig 1f curve point) (0.144375 uM): 64.5 and 70.3
- isoleucine transport, Human (Fig 1f curve point) (0.4375 uM): 40 and 54.4
- isoleucine transport, Human (Fig 1f curve point) (1.3125 uM): 41.1 and 23.8
- isoleucine transport, Human (Fig 1f curve point) (3.9375 uM): 21 and 4.32
- isoleucine transport, Human (Fig 1f curve point) (11.8125 uM): 2.26 and -9.71
- IC50 (geometric mean n = 6, 95% CI 0.68–2.82 μM, read-out: IC50 against human SLC6A19, isoleucine transport assay): 1250 nM

Compound: NC(=O)N1CCC[C@@H](N(C(=O)NCc2ccc(OC(F)(F)F)cc2F)C2CC2)C1 [JNT-517]
- isoleucine transport, Human (Fig 1c curve point) (0.000722 uM): 89.9 and 94.8
- isoleucine transport, Human (Fig 1c curve point) (0.00219 uM): 91.3 and 95.5
- isoleucine transport, Human (Fig 1c curve point) (0.00438 uM): 79.4 and 85.4
- isoleucine transport, Human (Fig 1c curve point) (0.0153125 uM): 71.2 and 80.7
- isoleucine transport, Human (Fig 1c curve point) (0.048125 uM): 33.9 and 45.4
- isoleucine transport, Human (Fig 1c curve point) (0.144375 uM): 25.9 and 24
- isoleucine transport, Human (Fig 1c curve point) (0.4375 uM): 12.2 and 4.05
- isoleucine transport, Human (Fig 1c curve point) (1.3125 uM): -3.01 and -3.67
- isoleucine transport, Human (Fig 1c curve point) (3.9375 uM): -3.2 and -3.39
- isoleucine transport, Human (Fig 1c curve point) (11.8125 uM): -9.74 and -5.08
- IC50 (geometric mean n = 4, 95% CI 38–57 nM, read-out: potency (IC50) against human SLC6A19, isoleucine transport assay): 47 nM
